According to ChEMBL document CHEMBL5380862, “Unsymmetrical Phosphodiesters as GPR84 Antagonists with High Blood Exposure for the Treatment of Lung Inflammation” (J Med Chem, 2023):
Active and inactive are the calls of the source. No cut-off for these calls is given here.

Experiments:
[1] = target: G-protein coupled receptor 84 (Homo sapiens, UniProt Q9NQS5); test: Antagonist activity at human GPR84 expressed in HEK293 cells co-expressing Galpha16 assessed as inhibition of 6-OAU induced calcium response incubated for 10 mins by calcium mobilization assay; format: functional, cell-based
G-protein coupled receptor 84, sequence (Q9NQS5 whole entry): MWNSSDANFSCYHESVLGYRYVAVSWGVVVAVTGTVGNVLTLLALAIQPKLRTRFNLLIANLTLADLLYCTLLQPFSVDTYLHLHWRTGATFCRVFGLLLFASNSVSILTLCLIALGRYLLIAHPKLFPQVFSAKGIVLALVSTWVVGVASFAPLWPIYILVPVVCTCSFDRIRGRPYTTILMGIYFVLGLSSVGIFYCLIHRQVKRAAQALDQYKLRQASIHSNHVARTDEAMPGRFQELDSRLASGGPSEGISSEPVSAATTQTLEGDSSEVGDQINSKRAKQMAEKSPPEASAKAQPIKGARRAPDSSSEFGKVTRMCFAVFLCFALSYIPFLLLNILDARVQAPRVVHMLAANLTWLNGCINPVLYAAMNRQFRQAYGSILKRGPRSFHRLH

[2] = system: Mus musculus; test: Protection against C57BL/6 mouse model of LPS-induced acute […] injury assessed as reduction in total cells in BALF at 100 mg/kg, po pre-treated with compound for 30 mins followed by LPS-stimulation for 12 hrs and measured 24 hrs post LPS stimulation by flow cytometric analysis; format: functional, organism-based; settings: time 24.5 hrs
[3] = system: Mus musculus; test: (§1) Protection against C57BL/6 mouse model of LPS-induced acute […] injury assessed as reduction in CD45positive immune cells in BALF at 100 mg/kg, po pre-treated with compound for 30 mins followed by LPS-stimulation for 12 hrs and measured 24 hrs post LPS stimulation by flow cytometric analysis; format: functional, organism-based; settings: time 24.5 hrs
[4] = system: Mus musculus; test: as §1, with “CD11bpositive myeloid” for “immune”; format: functional, organism-based; settings: time 24.5 hrs
[5] = system: Mus musculus; test: as §1, with “CD11bpositive Ly6Gpositive neutrophils” for “immune cells”; format: functional, organism-based; settings: time 24.5 hrs
[6] = system: Mus musculus; test: Protection against C57BL/6 mouse model of LPS-induced acute […] injury assessed as amelioration of pulmonary congestion at 100 mg/kg, po pre-treated with compound for 30 mins followed by LPS-stimulation for 12 hrs and measured 24 hrs post LPS stimulation by H&E staining based analysis; format: functional, organism-based; settings: time 24.5 hrs
[7] = system: Mus musculus; test: Protection against C57BL/6 mouse model of LPS-induced acute […] injury assessed as amelioration of thickening of alveolar wall at 100 mg/kg, po pre-treated with compound for 30 mins followed by LPS-stimulation for 12 hrs and measured 24 hrs post LPS stimulation by H&E staining based analysis; format: functional, organism-based; settings: time 24.5 hrs
[8] = system: Mus musculus; test: Protection against C57BL/6 mouse model of LPS-induced acute […] injury assessed as amelioration of […] edema at 100 mg/kg, po pre-treated with compound for 30 mins followed by LPS-stimulation for 12 hrs and measured 24 hrs post LPS stimulation by H&E staining based analysis; format: functional, organism-based; settings: time 24.5 hrs

Compound | IC50 [1] | other results
COc1cccc2c1Sc1ccccc1C=C2OP(=O)(O)OC1CCC(C)CC1 (stereo unspecified) | 4010 nM | –
CC1(C)[C@@H]2CC[C@@](C)(C2)[C@@H]1OP(=O)(O)OC1=Cc2ccccc2Sc2ccccc21 | 166 nM | –
COc1cccc2c1Sc1ccccc1C=C2OP(=O)(O)OC12CC3CC(CC(C3)C1)C2 | 340 nM | –
CCOCCOCCOP(=O)(O)OC1=Cc2ccccc2Sc2c(OC)cccc21 | 21800 nM | –
CCOC(=O)[C@H](CS)NC(C)=O | – | Activity [2]: Active; Activity [3]: Active; Activity [4]: Active; Activity [5]: Active; Activity [6]: Active; Activity [7]: Active; Activity [8]: Active
COc1cccc2c1Sc1ccccc1C=C2OP(=O)(O)O[C@@H]1C[C@H](C)CC[C@H]1C(C)C | 68 nM | –
CCCCCCCCCOP(=O)(O)OC1=Cc2ccccc2Sc2c(OC)cccc21 | 194 nM | –
COc1cccc2c1Sc1ccccc1C=C2OP(=O)(O)OC1CCOC1 (stereo unspecified) | 3990 nM | –
CCCCCCCCP(=O)(O)OC1=Cc2ccccc2Sc2c(OC)cccc21 | 219 nM | –
COc1cccc2c1Sc1ccccc1C=C2OP(=O)(O)Oc1cc(C(C)C)ccc1C | 196 nM | –
COc1cccc2c1Sc1ccccc1C=C2OP(=O)(O)O[C@H]1C[C@@H](C)CC[C@@H]1C(C)C | 91 nM | –
COc1cccc2c1Sc1ccccc1C=C2OP(=O)(O)OC | 2830 nM | –
COc1cccc2c1Sc1ccccc1C=C2OP(=O)(O)OC12CC3CC(C)(CC(C)(C3)C1)C2 | 126 nM | –
CC1(C)[C@@H]2CC[C@@](C)(C2)[C@@H]1OP(=O)(O)OC1=Cc2ccccc2Sc2c(OC(F)(F)F)cccc21 | 12 nM | –
COc1cccc2c1Sc1ccccc1C=C2OP(=O)(O)Oc1ccc2ccccc2c1 | 609 nM | –
COc1cccc2c1Sc1ccccc1C=C2OP(=O)(O)OC1C(C)(C)CCCC1(C)C | 110 nM | –
COc1cccc2c1Sc1ccccc1C=C2OP(=O)(O)Oc1cc(C)ccc1C(C)C | 658 nM | –
CCCCCCOP(=O)(O)OC1=Cc2ccccc2Sc2c(OC)cccc21 | 325 nM | –
CC1(C)[C@@H]2CC[C@@](C)(C2)[C@@H]1OP(=O)(O)O[C@@H]1C(C)(C)[C@@H]2CC[C@@]1(C)C2 | 29600 nM | –
CC1(C)[C@@H]2CC[C@@](C)(C2)[C@@H]1OP(=O)(O)OC1=Cc2ccccc2Oc2ccccc21 | 711 nM | –
COc1cccc2c1Sc1ccccc1C=C2OP(=O)(O)OC1CCCCC1C (stereo unspecified) | 1730 nM | –
COc1cccc2c1Sc1ccccc1C=C2OP(=O)(O)Oc1cccc2ccccc12 | 130 nM | –
CC/C=C\CCCCOP(=O)(O)OC1=Cc2ccccc2Sc2c(OC)cccc21 | 517 nM | –
COc1cccc2c1Sc1ccccc1C=C2OP(=O)(O)OC1CC1 | 39500 nM | –
CC1(C)[C@@H]2CC[C@@](C)(C2)[C@@H]1OP(=O)(O)OC1=Cc2c(F)cccc2Sc2ccccc21 | 554 nM | –
